Laboratory results published in ChEMBL document CHEMBL1201862, “PubChem BioAssay data set” (2004).
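Exposure lasted 48 hours, with cells grown in 96-well plates and compounds tested at five concentrations. At the GI50, growth is halved.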 Active and inactive are the calls of the source. Rule as the data show it: active = GI50 up to about 1.1 µM and inactive = higher.

Key:
Test in all cases: NCI tumour cell line growth inhibition, 48 h
[1] = system: COLO 205
[2] = system: HCT-15
[3] = system: HOP-92
[4] = system: IGROV-1
[5] = system: K562
[6] = system: M14
[7] = system: OVCAR-3
[8] = system: SF-295
[9] = system: SK-MEL-2
[10] = system: SK-OV-3
[11] = system: SNB-19
[12] = system: U-251
[13] = system: UACC-62
[14] = system: 786-0
[15] = system: A549
[16] = system: HCT-116
[17] = system: HOP-62
[18] = system: KM12
[19] = system: OVCAR-5
[20] = system: UACC-257

SMILES | GI50 [1] | GI50 [2] | GI50 [3] | GI50 [4] | GI50 [5] | GI50 [6] | GI50 [7] | GI50 [8] | GI50 [9] | GI50 [10] | GI50 [11] | GI50 [12] | GI50 [13] | GI50 [14] | GI50 [15] | GI50 [16] | GI50 [17] | GI50 [18] | GI50 [19] | GI50 [20]
C#CCC1(C(=O)OCC)C(=O)c2ccccc2N(C)C1=O (configuration not stated) | > 100 µM (inactive) | > 100 µM | 36.6 µM (inactive) | > 100 µM (inactive) | 91.8 µM (inactive) | > 100 µM (inactive) | > 100 µM (inactive) | > 100 µM (inactive) | > 100 µM (inactive) | > 100 µM (inactive) | 45.4 µM (inactive) | > 100 µM (inactive) | > 100 µM (inactive) |  |  |  |  |  |  | 
COc1cc(OC)cc(C(=O)CC(=O)c2cc(OC)cc(OC)c2)c1 | > 100 µM (inactive) | 68.9 µM | > 100 µM (inactive) | > 100 µM (inactive) | 46.1 µM (inactive) | > 100 µM (inactive) | > 100 µM (inactive) | > 100 µM (inactive) |  | > 100 µM (inactive) | > 100 µM (inactive) | > 100 µM (inactive) | > 100 µM (inactive) | > 100 µM (inactive) | > 100 µM (inactive) | 69.2 µM (inactive) | > 100 µM (inactive) | > 100 µM (inactive) | > 100 µM (inactive) | > 100 µM (inactive)
N=C(Nc1nc(-c2ccccn2)cc2ccccc12)c1ccccn1 | 0.011 µM (active) | 0.0149 µM | 0.0233 µM (active) | 0.0322 µM (active) | 0.0108 µM (active) | 0.0229 µM (active) | 0.01 µM (active) | 0.326 µM (active) |  | 0.0308 µM (active) | 0.834 µM (active) | 0.0295 µM (active) | 0.0336 µM (active) | 0.0317 µM (active) | 0.0733 µM (active) | 0.01 µM (active) | 0.0789 µM (active) | 0.049 µM (active) | 0.0148 µM (active) | < 0.0172 µM (active)
COc1cc(C(=O)Nc2cc(C(N)=O)cc(OC)c2OC)cc(NC(=O)/C=C/c2ccccc2)c1OC | > 100 µM (inactive) | > 100 µM | 5.11 µM (inactive) | > 100 µM (inactive) | > 100 µM (inactive) |  | 3.68 µM (inactive) | 2.67 µM (inactive) |  | > 100 µM (inactive) | > 100 µM (inactive) |  | 15.2 µM (inactive) |  | > 100 µM (inactive) |  |  | > 100 µM (inactive) | > 100 µM (inactive) | > 100 µM (inactive)
Nc1nc(N)c2nc(-c3ccco3)cnc2n1 | 65.6 µM (inactive) | > 100 µM | 40 µM (inactive) | 43.1 µM (inactive) | 33.7 µM (inactive) | 50 µM (inactive) | 56.9 µM (inactive) | 60.3 µM (inactive) |  | 76.9 µM (inactive) | > 100 µM (inactive) | 34.1 µM (inactive) | 22.4 µM (inactive) | 27.1 µM (inactive) | 34.5 µM (inactive) | 34.4 µM (inactive) | 35.6 µM (inactive) | 93.5 µM (inactive) | > 100 µM (inactive) | 92.7 µM (inactive)
C=CCc1cc(OC)c2c(c1)C(OC(C)=O)CC(c1ccc(OC)c(OC)c1)O2 (configuration not stated) | > 100 µM (inactive) | > 100 µM | 23.4 µM (inactive) | > 100 µM (inactive) | > 100 µM (inactive) | > 100 µM (inactive) | > 100 µM (inactive) | 67.3 µM (inactive) |  | > 100 µM (inactive) | 49.4 µM (inactive) | 60.5 µM (inactive) | > 100 µM (inactive) |  | > 100 µM (inactive) | > 100 µM (inactive) | 45.4 µM (inactive) | > 100 µM (inactive) | > 100 µM (inactive) | > 100 µM (inactive)
